ChEMBL document CHEMBL3784984, “Cyclolinopeptides, cyclic peptides from flaxseed with osteoclast differentiation inhibitory activity” (Bioorg Med Chem Lett, 2016)
Non-standard residues stand in square brackets, D forms with d. Residues, ends and D or L forms follow the SMILES beside them. Met(O) = CS(=O)CC[C@H](N)C(=O)O

Columns and labels:
Bone marrow cell = assay: Inhibition of RANKL-induced osteoclast differentiation in ICR mouse bone marrow cells after 48 hrs by TRAP assay; assay type: functional, cell-based
[1] = Cytotoxicity against ICR mouse bone marrow cells assessed as cell viability after 24 hrs by MTT assay; assay type: cell-based

Row | IC50 (Bone marrow cell) [µM] | SMILES | Activity [1]
1 | 14.9 | CC[C@H](C)[C@@H]1NC(=O)[C@H](C(C)C)NC(=O)[C@H](Cc2ccccc2)NC(=O)[C@H](Cc2ccccc2)NC(=O)[C@@H]2CCCN2C(=O)[C@@H]2CCCN2C(=O)[C@H]([C@@H](C)CC)NC(=O)[C@H](CC(C)C)NC(=O)[C@H](CC[S+](C)[O-])NC1=O (stereo not given in full) (cyclo(FFVI[Met(O)]LIPP)) | Non-toxic
2 | 0.58 | CC(C)C[C@@H]1NC(=O)[C@H](CC[S+](C)[O-])NC(=O)[C@H](C(C)C)NC(=O)[C@H](Cc2c[nH]c3ccccc23)NC(=O)[C@H](Cc2ccccc2)NC(=O)[C@H](Cc2ccccc2)NC(=O)[C@@H]2CCCN2C(=O)[C@H](CC[S+](C)[O-])NC1=O (stereo not given in full) (cyclo(FFWV[Met(O)]L[Met(O)]P)) | Non-toxic
3 | 0.83 | CC[C@H](C)[C@@H]1NC(=O)[C@H](Cc2c[nH]c3ccccc23)NC(=O)[C@H](Cc2ccccc2)NC(=O)[C@H](Cc2ccccc2)NC(=O)[C@@H]2CCCN2C(=O)[C@H](CCSC)NC(=O)[C@H](CC(C)C)NC(=O)[C@H](CC[S+](C)[O-])NC1=O (stereo not given in full) (cyclo(FFWI[Met(O)]LMP)) | Non-toxic
4 | 0.49 | CC[C@H](C)[C@@H]1NC(=O)[C@H](Cc2c[nH]c3ccccc23)NC(=O)[C@H](Cc2ccccc2)NC(=O)[C@H](Cc2ccccc2)NC(=O)[C@@H]2CCCN2C(=O)[C@H](CCSC)NC(=O)[C@H](CC(C)C)NC(=O)[C@H](CCSC)NC1=O (cyclo(FFWIMLMP)) | Non-toxic
5 | 7.5 | COc1cc(/C=C/C(=O)CC(=O)/C=C/c2ccc(O)c(OC)c2)ccc1O [CURCUMIN] | –
6 | 12.2 | CC[C@H](C)[C@@H]1NC(=O)[C@H](CC(C)C)NC(=O)[C@H](Cc2ccccc2)NC(=O)[C@H](Cc2ccccc2)NC(=O)[C@@H]2CCCN2C(=O)[C@@H]2CCCN2C(=O)[C@H](C(C)C)NC(=O)[C@H](CC(C)C)NC(=O)[C@H]([C@@H](C)CC)NC1=O [CYCLOLINOPEPTIDE A] (cyclo(FFLIILVPP)) | Non-toxic
7 | 0.47 | CSCC[C@@H]1NC(=O)[C@H](C(C)C)NC(=O)[C@H](Cc2c[nH]c3ccccc23)NC(=O)[C@H](Cc2ccccc2)NC(=O)[C@H](Cc2ccccc2)NC(=O)[C@@H]2CCCN2C(=O)[C@H](CC[S+](C)[O-])NC(=O)[C@H](CC(C)C)NC1=O (stereo not given in full) (cyclo(FFWVML[Met(O)]P)) | Non-toxic
8 | > 20 | CC[C@H](C)[C@@H]1NC(=O)[C@H](Cc2ccccc2)NC(=O)[C@H](CC(C)C)NC(=O)[C@@H]2CCCN2C(=O)[C@H](Cc2ccccc2)NC(=O)[C@H](C(C)C)NC(=O)[C@H](CC(C)C)NC(=O)[C@H](CC[S+](C)[O-])NC1=O (stereo not given in full) (cyclo(FI[Met(O)]LVFPL)) | Non-toxic
9 | 0.59 | CSCC[C@@H]1NC(=O)[C@H](CC(C)C)NC(=O)[C@H](CC[S+](C)[O-])NC(=O)[C@H](C(C)C)NC(=O)[C@H](Cc2c[nH]c3ccccc23)NC(=O)[C@H](Cc2ccccc2)NC(=O)[C@H](Cc2ccccc2)NC(=O)[C@@H]2CCCN2C1=O (stereo not given in full) (cyclo(FFWV[Met(O)]LMP)) | Non-toxic
10 | 3.86 | CC[C@H](C)[C@@H]1NC(=O)[C@H](Cc2c[nH]c3ccccc23)NC(=O)[C@H](Cc2ccccc2)NC(=O)[C@H](Cc2ccccc2)NC(=O)[C@@H]2CCCN2C(=O)[C@H](CC(C)C)NC(=O)[C@H](CC(C)C)NC(=O)[C@H](CC[S+](C)[O-])NC1=O (stereo not given in full) (cyclo(FFWI[Met(O)]LLP)) | Non-toxic
11 | 15.3 | CC[C@H](C)[C@@H]1NC(=O)[C@H](Cc2ccccc2)NC(=O)[C@H](CC(C)C)NC(=O)[C@@H]2CCCN2C(=O)[C@H](Cc2ccccc2)NC(=O)[C@H](C(C)C)NC(=O)[C@H](CC(C)C)NC(=O)[C@H](CCSC)NC1=O (cyclo(FIMLVFPL)) | Non-toxic
12 | 17.2 | CC(C)Oc1ccc2c(=O)c(-c3ccccc3)coc2c1 [IPRIFLAVONE] | –
13 | 5.53 | CC[C@H](C)[C@@H]1NC(=O)[C@H](C(C)C)NC(=O)[C@H](Cc2ccccc2)NC(=O)[C@H](Cc2ccccc2)NC(=O)[C@@H]2CCCN2C(=O)[C@@H]2CCCN2C(=O)[C@H]([C@@H](C)CC)NC(=O)[C@H](CC(C)C)NC(=O)[C@H](CCSC)NC1=O (cyclo(FFVIMLIPP)) | Non-toxic
14 | 0.6 | CSCC[C@@H]1NC(=O)[C@H](C(C)C)NC(=O)[C@H](Cc2c[nH]c3ccccc23)NC(=O)[C@H](Cc2ccccc2)NC(=O)[C@H](Cc2ccccc2)NC(=O)[C@@H]2CCCN2C(=O)[C@H](CCSC)NC(=O)[C@H](CC(C)C)NC1=O (cyclo(FFWVMLMP)) | Non-toxic
15 | 4.67 | CC[C@H](C)[C@@H]1NC(=O)[C@H](Cc2c[nH]c3ccccc23)NC(=O)[C@H](Cc2ccccc2)NC(=O)[C@H](Cc2ccccc2)NC(=O)[C@@H]2CCCN2C(=O)[C@H](CC[S+](C)[O-])NC(=O)[C@H](CC(C)C)NC(=O)[C@H](CCSC)NC1=O (stereo not given in full) (cyclo(FFWIML[Met(O)]P)) | Non-toxic
16 | 4.04 | CC[C@H](C)[C@@H]1NC(=O)[C@H](Cc2c[nH]c3ccccc23)NC(=O)[C@H](Cc2ccccc2)NC(=O)[C@H](Cc2ccccc2)NC(=O)[C@@H]2CCCN2C(=O)[C@H](CC[S+](C)[O-])NC(=O)[C@H](CC(C)C)NC(=O)[C@H](CC[S+](C)[O-])NC1=O (stereo not given in full) (cyclo(FFWI[Met(O)]L[Met(O)]P)) | Non-toxic
